Data reported in ChEMBL document CHEMBL1138752, “2-Pyrazolyl-N(6)-substituted adenosine derivatives as high affinity and selective adenosine A(3) receptor agonists” (J Med Chem, 2004).

Experiments:
[1] = target: Adenosine receptors; A1 & A3 (Homo sapiens) (UniProt P30542+P0DMS8); experiment: Ratio of binding to adenosine A1 and adenosine A3 receptor; format: protein assay
[2] = target: Adenosine receptors; A2a & A3 (Homo sapiens) (UniProt P0DMS8+P29274); experiment: Ratio of binding to adenosine A2a and adenosine A3 receptor; format: protein assay
Chain of Adenosine receptors; A2a & A3 (Homo sapiens) (P29274 whole entry, looked up, one chain of several): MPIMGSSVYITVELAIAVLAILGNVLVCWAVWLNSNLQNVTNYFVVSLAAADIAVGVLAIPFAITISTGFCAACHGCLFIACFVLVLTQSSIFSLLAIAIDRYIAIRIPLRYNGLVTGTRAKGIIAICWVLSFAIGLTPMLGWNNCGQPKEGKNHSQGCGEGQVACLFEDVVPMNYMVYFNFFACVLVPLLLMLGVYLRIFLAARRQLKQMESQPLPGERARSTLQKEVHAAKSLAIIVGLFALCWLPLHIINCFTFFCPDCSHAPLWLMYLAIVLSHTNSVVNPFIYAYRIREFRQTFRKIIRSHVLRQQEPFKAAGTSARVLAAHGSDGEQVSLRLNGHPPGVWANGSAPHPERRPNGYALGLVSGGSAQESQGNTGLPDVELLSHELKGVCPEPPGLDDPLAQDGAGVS

Adenosine receptor A3 = target: T1, Adenosine receptor A3 (Homo sapiens, UniProt P0DMS8); experiment: biochemical
T1 sequence (P0DMS8 whole entry): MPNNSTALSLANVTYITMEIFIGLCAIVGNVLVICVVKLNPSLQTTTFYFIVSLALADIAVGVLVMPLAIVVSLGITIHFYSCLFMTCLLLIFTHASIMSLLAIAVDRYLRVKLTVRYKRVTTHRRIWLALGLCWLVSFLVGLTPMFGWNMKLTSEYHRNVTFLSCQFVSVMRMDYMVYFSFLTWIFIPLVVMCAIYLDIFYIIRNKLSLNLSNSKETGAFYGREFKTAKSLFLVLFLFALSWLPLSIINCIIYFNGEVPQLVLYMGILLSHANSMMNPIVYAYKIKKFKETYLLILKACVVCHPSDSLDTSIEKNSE
Description: Displacement of [125I]-AB MECA from recombinant human adenosine A3 receptor expressed in HEK cells

Adenosine receptor A1 = target: T2, Adenosine receptor A1 (Homo sapiens, UniProt P30542); experiment: biochemical
T2 sequence (P30542 whole entry): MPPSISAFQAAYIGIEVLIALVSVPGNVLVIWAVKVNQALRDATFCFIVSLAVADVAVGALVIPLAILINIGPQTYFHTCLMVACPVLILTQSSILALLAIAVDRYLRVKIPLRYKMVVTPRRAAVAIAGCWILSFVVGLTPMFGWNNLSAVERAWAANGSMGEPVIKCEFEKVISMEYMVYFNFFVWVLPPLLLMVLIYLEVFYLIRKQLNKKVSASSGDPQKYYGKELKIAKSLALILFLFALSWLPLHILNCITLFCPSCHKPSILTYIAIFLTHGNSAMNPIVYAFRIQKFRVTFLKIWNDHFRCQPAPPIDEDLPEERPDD
Description: Displacement of [3H]CCPA from recombinant human adenosine A1 receptor expressed in CHO cells

Adenosine receptor A2a = Adenosine receptor A2a (Homo sapiens, UniProt P29274); experiment: biochemical
Chain of Adenosine receptor A2a (P29274 whole entry): as the sequence (P29274 whole entry, looked up, one chain of several) above
Description: Displacement of [3H]CGS-21680 from recombinant human adenosine A2a receptor expressed in HEK cells

Row | SMILES | Selectivity [1] | Selectivity [2] | Ki (Adenosine receptor A3) [nM] | Ki (Adenosine receptor A1) [nM] | Ki (Adenosine receptor A2a) [nM]
1 | CNc1nc(-c2cnn(Cc3ccccc3)c2)nc2c1ncn2C1O[C@H](CO)[C@@H](O)[C@H]1O (stereo partly specified) | 13 | > 50 | 97 | 1300 | > 5000
2 | CCNc1nc(-n2cc(-c3ccccn3)cn2)nc2c1ncn2[C@@H]1O[C@H](CO)[C@@H](O)[C@H]1O | – | – | 107 | – | 1800
3 | CCCNc1nc(-c2cnn(Cc3ccccc3)c2)nc2c1ncn2C1O[C@H](CO)[C@@H](O)[C@H]1O (stereo partly specified) | – | – | 148 | – | –
4 | CNC(=O)c1cnn(-c2nc(N)c3ncn([C@@H]4O[C@H](CO)[C@@H](O)[C@H]4O)c3n2)c1 [REGADENOSON ANHYDROUS] | – | – | > 10000 | – | –
5 | CNc1nc(-n2cc(C(=O)NCc3ccc(Cl)cc3)cn2)nc2c1ncn2C1O[C@H](CO)[C@@H](O)[C@H]1O (stereo partly specified) | – | 25 | 157 | 2000 | 4000
6 | OC[C@H]1OC(n2cnc3c(NCc4cccc(I)c4)nc(-n4cc(-c5nccc6ccccc56)cn4)nc32)[C@H](O)[C@@H]1O (stereo partly specified) | 7 | < 1 | 109 | 770 | 52
7 | CNc1nc(-n2cc(-c3ccccn3)cn2)nc2c1ncn2[C@@H]1O[C@H](CO)[C@@H](O)[C@H]1O | – | – | – | – | > 5000
8 | COc1ccc(-c2cnn(-c3nc(N)c4ncn([C@@H]5O[C@H](CO)[C@@H](O)[C@H]5O)c4n3)c2)cc1 | – | – | > 6000 | – | 190
9 | OC[C@H]1OC(n2cnc3c(NCc4cccc(I)c4)nc(-n4cc(-c5ccccn5)cn4)nc32)[C@H](O)[C@@H]1O (stereo partly specified) | 24 | > 22 | 170 | 4200 | > 3900
10 | Nc1nc(-c2cnn(Cc3ccccc3)c2)nc2c1ncn2[C@@H]1O[C@H](CO)[C@@H](O)[C@H]1O | – | – | > 10000 | – | 1.5
11 | CNC(=O)c1cnn(-c2nc(NC)c3ncn([C@@H]4O[C@H](CO)[C@@H](O)[C@H]4O)c3n2)c1 | > 80 | > 80 | 73 | – | > 6000
12 | COc1ccc(-c2cnn(-c3nc(NCc4cccc(I)c4)c4ncn(C5O[C@H](CO)[C@@H](O)[C@H]5O)c4n3)c2)cc1 (stereo partly specified) | 14 | 10 | 320 | 4500 | 4000

The next lines start with the values.

Row | Selectivity [1] | Selectivity [2] | Ki (Adenosine receptor A3) [nM] | Ki (Adenosine receptor A1) [nM] | Ki (Adenosine receptor A2a) [nM] | SMILES
13 | > 600 | > 500 | 10 | > 6000 | > 5000 | CNc1nc(-n2cc(-c3ccc(Cl)cc3)cn2)nc2c1ncn2C1O[C@H](CO)[C@@H](O)[C@H]1O (stereo partly specified)
14 | > 200 | > 300 | 15 | – | > 5000 | CNc1nc(-n2cc(-c3ccc(OC)cc3)cn2)nc2c1ncn2[C@@H]1O[C@H](CO)[C@@H](O)[C@H]1O
15 | 45 | 50 | 65 | 3000 | 3300 | CCCNc1nc(-n2cc(-c3ccc(OC)cc3)cn2)nc2c1ncn2C1O[C@H](CO)[C@@H](O)[C@H]1O (stereo partly specified)
16 | > 1600 | > 1600 | 3 | > 5000 | > 5000 | CNc1nc(-n2cc(-c3ccc4ccccc4n3)cn2)nc2c1ncn2C1O[C@H](CO)[C@@H](O)[C@H]1O (stereo partly specified)
17 | > 200 | > 200 | 19 | > 4000 | > 4000 | CCCNC(=O)c1cnn(-c2nc(NC)c3ncn(C4O[C@H](CO)[C@@H](O)[C@H]4O)c3n2)c1 (stereo partly specified)
18 | 900 | 2000 | 2 | 1800 | 4100 | CNc1nc(-n2cc(-c3cccnc3)cn2)nc2c1ncn2C1O[C@H](CO)[C@@H](O)[C@H]1O (stereo partly specified)
19 | 90 | 100 | 41 | – | 4000 | CCNc1nc(-n2cc(-c3ccc(OC)cc3)cn2)nc2c1ncn2[C@@H]1O[C@H](CO)[C@@H](O)[C@H]1O
20 | 600 | > 800 | 6 | 3800 | > 5000 | CNc1nc(-n2cc(-c3ccncc3)cn2)nc2c1ncn2C1O[C@H](CO)[C@@H](O)[C@H]1O (stereo partly specified)
21 | – | – | 49 | – | – | CCNC(=O)c1cnn(-c2nc(NC)c3ncn(C4O[C@H](CO)[C@@H](O)[C@H]4O)c3n2)c1 (stereo partly specified)
22 | 1300 | 1200 | 2 | 2600 | 2500 | CNc1nc(-n2cc(-c3nc4ccccc4o3)cn2)nc2c1ncn2C1O[C@H](CO)[C@@H](O)[C@H]1O (stereo partly specified)
